These results are taken from patent publication US8372617B2, “β-galactoside-α2,6-sialyltransferase, a gene encoding thereof, and a method for enhancing enzyme activity” (Japan Tobacco Inc., priority 2007, dated 2013).

In data set [1] the test system is recombinant β-galactoside-α2,6-sialyltransferase N1C0. The data set is described as follows: Glycosyl acceptor substrate specificity, monosaccharides and disaccharides. Type of data set: biochemical, Photobacterium leiognathi. The conditions noted are these: for % (nmol), relative activity toward acceptor substrate: sialyltransferase activity toward lactose set to 100; for transfer of sialic acid to acceptor substrate: 11 monosaccharides and disaccharides tested. The source says:
The purified enzyme prepared in Example 3 for JT-SHIZ-145-derived recombinant β-galactoside-α2,6-sialyltransferase N1C0 (SEQ ID NO: 4) was used to cause sialic acid transfer reaction in various monosaccharides/disaccharides as glycosyl acceptor substrates. The reaction was accomplished as described in J. Biochem., 120, 104-110 (1996). The monosaccharides used as glycosyl acceptor substrates were the following 8 types: methyl-α-D-galactopyranoside (Gal-α-OMe), methyl-β-D-galactopyranoside (Gal-β-OMe), methyl-α-D-glucopyranoside (Glc-α-OMe), methyl-β-D-glucopyranoside (Glc-β-OMe), methyl-α-D-mannopyranoside (Man-α-OMe), methyl-β-D-mannopyranoside (Man-β-OMe), N-acetylgalactosamine (GalNAc), and N-acetylglucosamine (GlcNAc). The disaccharides used were the following 3 types: lactose (Gal-β1,4-Glc), N-acetyllactosamine (Gal-β1,4-GlcNAc) and Gal-β1,3-GalNAc.
It should be noted that the relative activity toward each acceptor substrate was calculated assuming that the sialyltransferase activity toward lactose was set to 100.

The test system is the same in data set [2]. The method, then: Using a crude enzyme solution, enzyme activity was measured in a reaction solution adjusted to contain calcium chloride and/or EDTA at a final concentration of 10 mM for calcium ion and 50 mM for EDTA.
The test system is the same in data set [3]. The data set is described as follows: Effect of addition of various salts (complex ions, Na+/K+) on enzyme activity. It is filed as biochemical, Photobacterium leiognathi. The conditions noted are these: anion concentration 0.1 M in Tris-HCl, 30° C.; compared to absence of addition. The procedure: Aqueous solutions were prepared for potassium nitrate (KNO3), sodium nitrate (NaNO3), potassium sulfate (K2SO4), sodium sulfate (Na2SO4), sodium dihydrogen phosphate (NaH2PO4), disodium hydrogen phosphate (Na2HPO4) and potassium phosphate (KH2PO4+K2HPO4 (abbreviated as KPB)). These aqueous solutions were each adjusted with Tris-HCl buffer to give an anion concentration of 0.1 M in the reaction solution at 30° C., and used for enzyme activity measurement.
It should be noted that enzyme activity in the reaction solution upon addition of each solution was evaluated as relative activity, assuming that the enzyme activity in the absence of addition (i.e., in Tris-HCl alone) was set to 1.

The test system is the same in data set [4]. Briefly: Optimum temperature for enzyme activity. Type of data set: biochemical, Photobacterium leiognathi. To be noted: phosphate buffer (pH 8.0), 10° C. up to 50° C. The procedure:
The enzyme activity was measured at an interval of 5° C. starting from 10° C. up to 50° C. using phosphate buffer (pH 8.0).
As a result, as shown in FIG. 2-2, the enzyme activity was maximum at 30° C. It should be noted that enzyme activity at each temperature was evaluated as relative activity, assuming that the enzyme activity at 30° C. was set to 100.

Data set [5] has as its system β-galactoside-α2,6-sialyltransferase from the strain JT-SHIZ-145. Briefly: Sialyltransferase activity measurement of crude enzyme solution from E. coli transformed with SHIZ145-N1C0/pTrc99A (14C CMP-NeuAc donor, lactose acceptor). Type of data set: biochemical, Photobacterium leiognathi. To be noted: insert +, 120 mM lactose, 0.5 M NaCl, 30° C. for 30 minutes. The method, then: Among the two expression vectors obtained above, SHIZ145-N1C0/pTrc99A was used to perform an induction experiment of protein expression. A single colony of E. coli TB1 having the expression vector pTrc99A carrying the SHIZ145-N1C0 clone (SEQ ID NO: 3) was inoculated into LB medium (6 ml) containing an antibiotic, ampicillin (final concentration […]), and pre-cultured at 30° C. to about A600=0.5, followed by addition of IPTG (isopropyl-β-D(−)-thiogalactopyranoside, Wako Pure Chemical Industries, Ltd., Japan) at a final concentration of 1 mM to initiate expression induction. After culturing overnight with shaking at 30° C., the cells in 2 ml culture solution were collected by centrifugation. These cells were suspended in 400 μl of 20 mM Bis-Tris buffer (pH 6.0) containing 0.336% Triton X-100, and ultrasonically homogenized under ice cooling. The resulting homogenate was defined as a crude enzyme solution and provided for sialyltransferase activity measurement. Measurement was accomplished as described in J. Biochem., 120, 104-110 (1996) (hereby incorporated by reference in its entirety). […] Radioactivity was measured for the reaction product, i.e., sialyllactose contained in the eluate from the column to calculate the enzyme activity.

The subject of data set [6] is β-galactoside-α2,6-sialyltransferase. The data set is described as follows: Binding mode of sialic acid: reaction with PA-lactose and CMP-NeuAc, HPLC analysis. It is filed as biochemical, Photobacterium leiognathi. To be noted: pyridylaminated lactose as glycosyl acceptor. The procedure:
To determine the binding mode of sialic acid, a reaction using PA-lactose as a substrate was then performed. The enzymatic reaction was accomplished by using the resulting crude enzyme solution and a pyridylaminated sugar chain as a glycosyl acceptor substrate. The pyridylaminated sugar chain used for analysis was pyridylaminated lactose (Galβ1-4Glc-PA, Takara Bio Inc., Japan). To 5 μl of the crude enzyme solution, 1.5 μl of 5 mM CMP-NeuAc and 1.5 μl of 10 pmol/μl glycosyl acceptor substrate were added and reacted at 25° C. for 18 hours. After completion of the reaction, the reaction solution was treated at 100° C. for 2 minutes to inactivate the enzyme, followed by HPLC to analyze the reaction product. The HPLC system used was Shimadzu LC10A (Shimadzu Corporation, Japan) and the analytical column used was Takara PALPAK Type R (Takara Bio Inc., Japan). […] The analysis was performed under the following conditions: flow rate: 1 ml/min, column temperature: 40° C., detection: fluorescence (Ex: 320 nm, Em: 400 nm).
Further analysis was performed to examine whether sialyltransferase expressed by E. coli cells transformed in (5) above with SHIZ145-N1C0/pTrc99A had β-galactoside-α2,6-sialyltransferase activity. […] As a result, PA-6′-sialyllactose (Neu5Acα2-6Galβ1-4Glc-PA) was detected, as in the case of Example 1.

In data set [7] the test system is recombinant β-galactoside-α2,6-sialyltransferase N1C0. The data set is described as follows: Optimum pH for enzyme activity. It is filed as biochemical, Photobacterium leiognathi. To be noted: phosphate buffer, 30° C. The method, then: Acetate buffer (pH 4-5), cacodylate buffer (pH 5-6), Bis-Tris buffer (pH 6-7), phosphate buffer (pH 6-9.5), Tris-HCl buffer (pH 7-9.5), TAPS buffer (pH 8-9), CHES buffer (pH 9-10) and CAPS buffer (pH 10-11) were prepared and used for enzyme activity measurement at 30° C. at various pH values.
It should be noted that enzyme activity at each pH was evaluated as relative activity, assuming that the enzyme activity at pH 8.0 in phosphate buffer was set to 1.

As for `CO[C@H]1O[C@H](CO)[C@H](O)[C@H](O)[C@H]1O` [Gal-α-OMe, methyl-α-D-galactopyranoside], in data set [1], the “% (nmol), relative activity toward acceptor substrate” value is given as 2%.
As for `CC(=O)N[C@H]1C(O)O[C@H](CO)[C@H](O)[C@@H]1O[C@@H]1O[C@H](CO)[C@H](O)[C@H](O)[C@H]1O` (stereo partly drawn) [Gal-β1,3-GalNAc], in data set [1], the “transfer of sialic acid to acceptor substrate” value is listed as “efficiently transferred” and the “% (nmol), relative activity toward acceptor substrate” value was 71%.
In the same order, the values of `OC[C@H]1O[C@@H](O[C@H]2[C@H](O)[C@@H](O)C(O)O[C@@H]2CO)[C@H](O)[C@@H](O)[C@H]1O` (stereo partly drawn) [Gal-β1,4-Glc, lactose] are “efficiently transferred” and 100%.
Consider `CC(=O)N[C@H]1C(O)O[C@H](CO)[C@@H](O[C@@H]2O[C@H](CO)[C@H](O)[C@H](O)[C@H]2O)[C@@H]1O` (stereo partly drawn) [Gal-β1,4-GlcNAc, N-acetyllactosamine], for which, in data set [1], the “transfer of sialic acid to acceptor substrate” value is on record as “efficiently transferred” and the “% (nmol), relative activity toward acceptor substrate” value amounted to 205%.
In the same order, the values of `CO[C@@H]1O[C@H](CO)[C@H](O)[C@H](O)[C@H]1O` [Gal-β-OMe, methyl-β-D-galactopyranoside] are “efficiently transferred” and 59%.
In the same order, the values of `CC(=O)N[C@H]1C(O)O[C@H](CO)[C@H](O)[C@@H]1O` (stereo partly drawn) [GalNAc, N-acetylgalactosamine] are “efficiently transferred” and 35%.
On to `CO[C@H]1O[C@H](CO)[C@@H](O)[C@H](O)[C@H]1O` [Glc-α-OMe, methyl-α-D-glucopyranoside], for which, in data set [1], the “% (nmol), relative activity toward acceptor substrate” value is given as 0%.
Still for that read-out and setting: next, `CO[C@@H]1O[C@H](CO)[C@@H](O)[C@H](O)[C@H]1O` [Glc-β-OMe, methyl-β-D-glucopyranoside]: 0%; `CC(=O)N[C@H]1C(O)O[C@H](CO)[C@@H](O)[C@@H]1O` (stereo partly drawn) [GlcNAc, N-acetylglucosamine]: 6%.
The same measure, in the same setting: next, `CO[C@H]1O[C@H](CO)[C@@H](O)[C@H](O)[C@@H]1O` [Man-α-OMe, methyl-α-D-mannopyranoside]: 0%; `CO[C@@H]1O[C@H](CO)[C@@H](O)[C@H](O)[C@@H]1O` [Man-β-OMe, methyl-β-D-mannopyranoside]: 0%.
`[Ca+2].[Cl-].[Cl-]` [calcium ion, calcium chloride]: the “enzyme activity with calcium ion together with EDTA” value in data set [2] (10 mM calcium ion and 50 mM EDTA) was “almost the same level as in the absence of calcium ion”. Also, the “enzyme activity in the presence of calcium ion” value in data set [2] (10 mM calcium ion, compared to absence of calcium ion) was “remarkably increased”.
As to `O=P([O-])([O-])O.[Na+].[Na+]` [disodium hydrogen phosphate], the “effect of addition on enzyme activity” value in data set [3] is listed as “maximum”.
On to “potassium phosphate (KH2PO4+K2HPO4 (abbreviated as KPB)) [potassium phosphate (KPB)]”, for which, in data set [3], the “effect of addition on enzyme activity” value is “maximum”.

B1: SHIZ145-N1C0: β-galactoside-α2,6-sialyltransferase from strain JT-SHIZ-145 lacking the amino acids of the signal peptide region, expressed in E. coli (protein)
chain: MCNDNQNTVDVVVSTVNDNVIENNTYQVKPIDTPTTFDSYSWIQTCGTPILKDDEKYSLSFDFVAPELDQDEKFCFEFTGDVDGKRYVTQTNLTVVAPTLEVYVDHASLPSLQQLMKIIQQKNEYSQNERFISWGRIRLTEDNAEKLNAHIYPLAGNNTSQELVDAVIDYADSKNRLNLELNTNTGHSFRNIAPILRATSSKNNILISNINLYDDGSAEYVSLYNWKDTDNKSQKLSDSFLVLKDYLNGISSEKPNGIYSIYNWHQLYHSSYYFLRKDYLTVETKLHDLREYLGGSLKQMSWDTFSQLSKGDKELFLNIVGFDQEKLQQEYQQSELPNFVFTGTTTWAGGETKEYYAQQQVNVVNNAINETSPYYLGREHDLFFKGHPRGGIINDIILGSFNNMIDIPAKVSFEVLMMTGMLPDTVGGIASSLYFSIPAEKVSFIVFTSSDTITDREDALKSPLVQVMMTLGIVKEKDVLFWC
In the case of B1, the “temperature at which the enzyme activity was maximum” value in data set [4] was 30 °C. For the same molecule, the “NeuAc transferred (cpm)” value in data set [5] came to 8326 cpm. For the same molecule, in data set [6], the “PA-6′-sialyllactose (Neu5Acα2-6Galβ1-4Glc-PA) product” value is recorded as “detected”. In addition, the “pH at which the enzyme activity reached maximum” value in data set [7] stood at 8.0.
